Laboratory results reported in patent US11040963B2 (priority 2017, dated 2021).

Experiments:
[1] = target: HA H1 A/California/07/09 (Influenza A virus (A/California/07/2009(H1N1)), UniProt C3W5X2); assay: biochemical; details: Competition binding (AlphaLISA), pIC50 H1 A/California/07/09
[2] = target: HA H1 A/New Caledonia/20/99 (Influenza A virus (A/New Caledonia/20/1999(H1N1)), UniProt Q6WG00); assay: biochemical; details: Competition binding (AlphaLISA), pIC50 H1 A/New Caledonia/20/99
[3] = target: HA H5 A/Vietnam/1203/04 (Influenza A virus (A/Vietnam/1203/2004(H5N1)), UniProt Q5EP31); assay: biochemical; details: Competition binding (AlphaLISA), pIC50 H5 A/Vietnam/1203/04
[4] = tested on: H1N1 A/California/07/09; assay: microbe, parasite or virus in culture; format: cell-based, influenza A virus; details: Influenza A virus, H1N1, MDCK, 96 h, read-out: Virus neutralization assay (VNA), pEC50 H1N1 A/California/07/09 (converted)
[5] = tested on: H1N1 A/New Caledonia/20/99; assay: microbe, parasite or virus in culture; format: cell-based, influenza A virus; details: Influenza A virus, H1N1, MDCK, 96 h, read-out: Virus neutralization assay (VNA), pEC50 H1N1 A/New Caledonia/20/99 (converted)
[6] = tested on: H5N1 A/Vietnam/1203/04; assay: microbe, parasite or virus in culture; format: cell-based, influenza A virus; details: Influenza A virus, H5N1, MDCK, 96 h, read-out: Virus neutralization assay (VNA), pEC50 H5N1 A/Vietnam/1203/04, MDCK cells, 96 h, CPE by ATPlite (converted); average of repeats
[7] = in vitro; details: dog, Cytotoxicity (pCC50) MDCK

| Structure (SMILES) | IC50 [1] [nM] | IC50 [2] [nM] | IC50 [3] [nM] | EC50 [4] [nM] | EC50 [5] [nM] | EC50 [6] [nM] | CC50 [7] [nM] |
| --- | --- | --- | --- | --- | --- | --- | --- |
| O=C(c1cccc(-c2nc3cc(C(F)(F)F)ccc3o2)c1)N1CCN(C(c2ccccc2)c2nnc(C3CNC3)o2)CC1 (centres unmarked) [Example 92] | 126 | 79.4 | 3160 | 3160 | 794 | 10000 | 10000 |
| COc1ccc2nc(-c3cccc(C(=O)N4CCN(C(C(=O)NCCN)c5ccccc5)CC4)c3)sc2c1 (centres unmarked) [Example 93] | 79.4 | 63.1 | 631 | 3980 | 794 | 7940 | 15800 |
| COC(=O)C(C)(c1ccccc1)N1CCN(C(=O)c2cccc(-c3nc4ccc(OC)cc4s3)c2)CC1 (centres unmarked) [Example 94] | 79.4 | 50.1 | 631 | 316 | 1000 | 7940 | 2510 |
| Cc1nnc([C@@H](c2ccccc2)N2CCN(C(=O)c3cccc(-c4cc5ccccc5cn4)c3)CC2)o1 [Example 95] | 126 | 158 | 5010 | 794 | 1000 | 31600 | 39800 |
| COCCNC(=O)C(c1ccccc1)N1CCN(C(=O)c2cccc(-c3nc4ccc(OC)cc4s3)c2)CC1 (centres unmarked) [Example 97] | 100 | 79.4 | 631 | 1000 | 1000 | 3980 | 10000 |
| COc1ccc2nc(-c3cccc(C(=O)N4CCN(C(c5ccccc5)c5noc(C)n5)CC4)c3)sc2c1 (centres unmarked) [Example 98] | 251 | 126 | 2510 | 1260 | 1000 | 12600 | 12600 |
| COCC(c1ccccc1)N1CCN(C(=O)c2cccc(-c3nc4ccc(OC)cc4s3)c2)CC1 (centres unmarked) [Example 99] | 251 | 158 | 1260 | 1580 | 1000 | > 50100 | > 50100 |
| COC(=O)[C@H](c1ccccc1)N1CCN(C(=O)c2cccc(-c3nc4cc(OC)ccc4o3)c2)CC1 [Example 100] | 501 | 316 | 25100 | 2000 | 1000 | 25100 | > 50100 |
| Cc1nnc(C(c2ccccc2)N2CCN(C(=O)c3cccc(-c4nc5ccncc5o4)c3)CC2)o1 (centres unmarked) [Example 102] | 200 | 251 | 12600 | 2000 | 1000 | > 50100 | > 50100 |
| CNC(=O)C(c1ccccc1)N1CCN(C(=O)c2cccc(-c3nc4ccc(OC)cc4s3)c2)CC1 (centres unmarked) [Example 103] | 200 | 126 | 1000 | 2510 | 1000 | 15800 | 31600 |
| CCCNC(=O)C(c1ccccc1)N1CCN(C(=O)c2cccc(-c3nc4ccc(OC)cc4s3)c2)CC1 (centres unmarked) [Example 104] | 251 | 200 | 2000 | 2510 | 1000 | 10000 | 7940 |
| O=C(c1cccc(-c2nc3cc(C(F)(F)F)ccc3o2)c1)N1CCN(C(c2ccccc2)c2nnco2)CC1 (centres unmarked) [Example 107] | 398 | 251 | 20000 | 3160 | 1000 | > 50100 | > 50100 |
| COc1ccc2nc(-c3cccc(C(=O)N4CCN(C(Cc5nnco5)c5ccccc5)CC4)c3)sc2c1 (centres unmarked) [Example 108] | 1580 | 501 | 25100 | 5010 | 1000 | > 50100 | > 50100 |
| CCc1nnc(C(c2ccccc2)N2CCN(C(=O)c3cccc(-c4nc5cc(C(F)(F)F)ccc5o4)c3)CC2)o1 (centres unmarked) [Example 109] | 79.4 | 158 | 3980 | 501 | 1260 | 25100 | 10000 |
| Cc1nnc([C@@H](c2ccccc2)N2CCN(C(=O)c3cccc(-c4ccc5ccccc5n4)c3)CC2)o1 [Example 112] | 501 | 398 | 6310 | 1580 | 1260 | > 5010 | 7940 |
| COC(=O)[C@@H](c1ccccc1)N1CCN(C(=O)c2cccc(-c3nc4cc(C(F)(F)F)ccc4o3)c2)[C@H](C(N)=O)C1 [Example 113] | 501 | 631 | 25100 | 1260 | 1580 | > 50100 | > 50100 |
| COC(=O)C(c1ccccc1)N1CCN(C(=O)C2CCCN(c3nc4ccc(OC)cc4s3)C2)CC1 (centres unmarked) [Example 115] | 251 | 316 | 7940 | 2000 | 1260 | > 50100 | 3980 |
| Cc1nc(C(c2ccccc2)N2CCN(C(=O)c3cccc(-c4nc5cc(C(F)(F)F)ccc5o4)c3)CC2)n[nH]1 (centres unmarked) [Example 116] | 501 | 398 | 5010 | 1580 | 1580 | > 50100 | 50100 |
| COC(=O)[C@H](c1ccccc1)N1CCN(C(=O)c2cccc(-c3nc4cc(C(F)(F)F)ccc4o3)c2)[C@@H](C)C1 [Example 117] | 126 | 100 | 6310 | 2510 | 1260 | 31600 | > 50100 |
| CNC(=O)N(Cc1ccccc1)C1CCN(C(=O)c2cccc(-c3nc4ccc(OC)cc4s3)c2)CC1 [Example 118] | 251 | 316 | 25100 | 7940 | 1260 | 31600 | 2000 |
| COC(=O)C(c1ccccc1)N1CCN(C(=O)c2ccnc(-c3nc4cc(C(F)(F)F)ccc4o3)c2)CC1 (centres unmarked) [Example 119] | 158 | 158 | 2000 | 1000 | 1580 | 25100 | 10000 |
| COC(=O)C(c1ccccc1)N1CCN(C(=O)c2cccc(-c3nc4ccc(OC)cc4[nH]3)c2)CC1 (centres unmarked) [Example 121] | 200 | 126 | 1580 | 3160 | 1580 | 39800 | 7940 |
| COC(=O)C(c1ccncc1)N1CCN(C(=O)c2cccc(-c3nc4ccc(OC)cc4s3)c2)CC1 (centres unmarked) [Example 122] | 398 | 200 | 2510 | 3980 | 1580 | 12600 | 10000 |
